Each structure is given as a SMILES string. Converted amounts (≈) assume the structure as drawn. Like-named read-outs stand apart in the source and are kept apart here.

Broadly, the MIC is the least concentration at which growth counts as inhibited.

A short description of data set [1]: Reverse-phase HPLC retention time as estimate of lipophilicity. The format is physicochemical. As to conditions: indicator of lipophilicity. Put shortly: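 Retention time on a reverse-phase HPLC column served as a relative lipophilicity estimate across structurally related albicidin derivatives.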
A further data set concerns the target E. coli DNA gyrase (Escherichia coli, UniProt P0AES4). The data set is described as follows: E. coli gyrase DNA cleavage assay. The format is biochemical. Also on record: key to Gyrase inhibition strong+ / weak −: + strong inhibition; − weak inhibition in comparison to compound 16. Conditions: for Gyrase inhibition strong+ / weak −: qualitative DNA cleavage assay at 1 μM and 10 μM, in comparison to compound 16. Put shortly:
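Relaxed pBR322 incubated with wild-type E. coli gyrase (50 nM stock for pre-screening, 40 nM stock for IC50 runs) and compound in buffer with 1 mM ATP, 2% DMSO, 30 min at 37 °C; cleavage complexes trapped with SDS/proteinase K. Linearized DNA as percentage of total by ethidium-stained agarose gel; four-parameter fit.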

For a further data set, the system named is Bacillus subtilis DSM 10. Nature of the data set: MIC determination (broth microdilution). In kind it is cell-based. As to conditions: DSM10, read-out: MIC B. sub. The procedure, abridged: (§1)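 Inoculum: overnight LB culture (37°C, 200 rpm) → 0.5 McFarland in CA-MHB II, ~1x10^6 CFU mL-1. DMSO dilution series, final 128–0.016 μg/mL/well. 16 h, 30−37°C. Visual read. CLSI M07-A9.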

The next data set deals with E. coli DSM1116. The data set is described as follows: MIC determination (broth microdilution). The format is cell-based. Put shortly:
as §1

For the next data set, the system named is E. coli BW25113. Nature of the data set: MIC determination (broth microdilution). The format is cell-based. The procedure, abridged:
as §1
(In general: Dilution methods test growth across graded concentrations, often in twofold steps.)

The test system of data set [2] is Mycobacterium phlei DSM 750. The data set is described as follows: MIC determination (broth microdilution). As to conditions: Mycolicibacterium phlei, DSM750; read-out: MIC M. phlei. In kind it is cell-based. Put shortly:
as §1

For data set [3], the system named is Micrococcus luteus DSM 1790. The data set is described as follows: MIC determination (broth microdilution). As to conditions: DSM1790, read-out: MIC M. luteus. In kind it is cell-based. Put shortly:
as §1

The mark [4] stands for this setting: Escherichia coli, DSM1116; read-out: MIC E. coli DSM1116.
[5] abbreviates: Escherichia coli, BW25113, read-out: MIC E. coli BW25113.
Where [6] appears, read: Escherichia coli, BW25113; read-out: MIC E. coli BW25113.

Sequence of E. coli DNA gyrase (P0AES4 whole entry): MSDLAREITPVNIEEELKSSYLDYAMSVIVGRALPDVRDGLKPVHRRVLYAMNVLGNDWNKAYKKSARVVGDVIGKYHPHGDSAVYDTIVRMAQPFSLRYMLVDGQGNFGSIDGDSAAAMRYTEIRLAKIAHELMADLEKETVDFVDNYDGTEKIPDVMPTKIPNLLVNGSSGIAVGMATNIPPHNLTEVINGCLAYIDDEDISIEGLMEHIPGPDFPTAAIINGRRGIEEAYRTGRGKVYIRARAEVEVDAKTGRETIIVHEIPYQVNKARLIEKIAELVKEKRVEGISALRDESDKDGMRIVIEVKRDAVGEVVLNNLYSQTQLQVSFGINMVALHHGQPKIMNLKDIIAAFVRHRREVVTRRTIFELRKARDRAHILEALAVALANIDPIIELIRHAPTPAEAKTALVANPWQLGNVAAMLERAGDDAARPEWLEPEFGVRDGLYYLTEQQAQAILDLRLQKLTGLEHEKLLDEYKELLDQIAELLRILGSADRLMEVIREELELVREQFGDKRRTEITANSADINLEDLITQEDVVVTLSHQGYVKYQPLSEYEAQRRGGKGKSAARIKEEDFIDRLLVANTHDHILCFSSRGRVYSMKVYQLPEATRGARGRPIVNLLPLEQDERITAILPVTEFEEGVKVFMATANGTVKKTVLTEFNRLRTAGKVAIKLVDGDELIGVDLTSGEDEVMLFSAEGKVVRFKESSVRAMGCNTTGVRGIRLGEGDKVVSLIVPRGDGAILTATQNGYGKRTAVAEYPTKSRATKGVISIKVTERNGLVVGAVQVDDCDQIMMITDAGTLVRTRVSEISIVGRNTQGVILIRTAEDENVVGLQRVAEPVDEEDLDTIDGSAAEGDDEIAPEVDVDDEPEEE

Consider `COc1c(NC(=O)c2ccc(NC(=O)c3ccc(NC(=O)[C@H](Cc4c[nH]nn4)NC(=O)c4ccc(NC(=O)c5cc6cc(O)ccc6[nH]5)cc4)cn3)c(OC)c2O)ccc(C(=O)O)c1O` [compound 21], for which the “Rt (retention time)” value in data set [1] is recorded as 7.50 min. The “Gyrase inhibition strong+ / weak −” value on E. coli DNA gyrase is given as “+”. Also, the MIC with Bacillus subtilis DSM 10 is 1 µg/mL (≈ 1.13 µM); in the data set on E. coli DSM1116 (setting [4]), 0.063 µg/mL (≈ 0.0712 µM); in the data set on E. coli BW25113 (setting [5]) it was 0.125 µg/mL (≈ 0.141 µM); in data set [2], 4 µg/mL (≈ 4.52 µM); in data set [3], 1 µg/mL (≈ 1.13 µM).
Turning to `COc1c(NC(=O)c2ccc(NC(=O)c3ccc(NC(=O)[C@H](Cc4c[nH]nn4)NC(=O)c4ccc(NC(=O)c5ccc6ncsc6c5)cc4)cn3)c(OC)c2O)ccc(C(=O)O)c1O` [compound 22], in data set [1], the “Rt (retention time)” value was 7.65 min. For the same molecule, the CC50 at E. coli DNA gyrase (E. coli gyrase DNA cleavage, read-out: CC50 (concentration at half-maximum cleavage)) was 0.043 µM. For the same molecule, the “Gyrase inhibition strong+ / weak −” value at E. coli DNA gyrase was “+”. In addition, the MIC in the data set on Bacillus subtilis DSM 10 is 0.125 µg/mL (≈ 0.141 µM); in the data set with E. coli DSM1116 (setting [4]), not above 0.016 µg/mL; with E. coli BW25113 (setting [6]), not above 0.016 µg/mL; in data set [2] it was 2 µg/mL (≈ 2.26 µM); in data set [3], 0.125 µg/mL (≈ 0.141 µM).
For the molecule `COc1c(NC(=O)c2ccc(NC(=O)c3ccc(NC(=O)[C@H](Cc4c[nH]nn4)NC(=O)c4ccc(NC(=O)c5ccc6nc[nH]c6c5)cc4)cn3)c(OC)c2O)ccc(C(=O)O)c1O` [compound 23], the “Rt (retention time)” value in data set [1] is given as 6.69 min. On E. coli DNA gyrase, the “Gyrase inhibition strong+ / weak −” value is listed as “+”. Besides, the MIC with Bacillus subtilis DSM 10 came out at 2 µg/mL (≈ 2.3 µM); with E. coli DSM1116 (Escherichia coli, DSM1116, read-out: MIC E. coli DSM1116), 0.125 µg/mL (≈ 0.144 µM); with E. coli BW25113 (setting [5]), 0.125 µg/mL (≈ 0.144 µM); in data set [2], 8 µg/mL (≈ 9.2 µM); in data set [3], 2 µg/mL (≈ 2.3 µM).
`COc1c(NC(=O)c2ccc(NC(=O)c3ccc(NC(=O)[C@H](Cc4c[nH]nn4)NC(=O)c4ccc(NC(=O)c5ccc6nn[nH]c6c5)cc4)cn3)c(OC)c2O)ccc(C(=O)O)c1O` [compound 24]: the “Rt (retention time)” value in data set [1] is listed as 7.16 min. Besides, the “Gyrase inhibition strong+ / weak −” value at E. coli DNA gyrase is given as “+”. Besides, the MIC in the data set on Bacillus subtilis DSM 10 stood at 0.5 µg/mL (≈ 0.574 µM); with E. coli DSM1116 (setting [4]), 0.125 µg/mL (≈ 0.144 µM); in the data set on E. coli BW25113 (setting [6]), 0.125 µg/mL (≈ 0.144 µM); in data set [2], 8 µg/mL (≈ 9.19 µM); in data set [3], 0.5 µg/mL (≈ 0.574 µM).

(Values after PMC11979685, “Synthesis of Derivatives of the Antibiotic Albicidin: The N‐Terminal Fragment as Key to Control Potency and Resistance Mediated by the Binding Protein AlbA” (Chemistry (Weinheim an Der Bergstrasse, Germany), 2025).)
